# Experimental data taken from PubChem BioAssay AID212 (DTP/NCI, 2004).
# Where “and” joins values, the source holds several entries; their conditions need not be identical. Equal entries are not always repeated. Records with an inconclusive call do not appear.
# System: BDF1 mice, colon carcinoma 38 sc, T/C %
# Assay: NCI In Vivo Anticancer Drug Screen. Data for tumor model Colon Carcinoma 38 (subcutaneous) in B6D2F1 (BDF1) mice
# Details: endpoint: median tumor weight (est.), higher = larger tumour
# How it was run: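 Mice with transplanted tumors are treated with compound or vehicle. Survival or tumor size is then measured in both groups. The ratio of treated to control gives the reported figure.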
# [1] = dose: 6.25 mg/kg/injection, schedule: Q07DX002 (ip), vehicle: saline with Tween-80
# [2] = dose: 25.0 mg/kg/injection, schedule: Q07DX002 (ip), vehicle: saline with Tween-80
# [3] = dose: 50.0 mg/kg/injection, schedule: Q07DX002 (ip), vehicle: saline
# [4] = dose: 100.0 mg/kg/injection, schedule: Q07DX002 (ip), vehicle: saline
# [5] = dose: 200.0 mg/kg/injection, schedule: Q07DX002 (ip), vehicle: saline
smiles,measurement,setting,value
Cc1cc2c(=O)c3ccccc3oc2c(C(=O)O)c1C,T/C,"dose: 50.0 mg/kg/injection, schedule: Q07DX002 (ip), vehicle: sodium bicarbonate",69 % of control
same,T/C,"dose: 100.0 mg/kg/injection, schedule: Q07DX002 (ip), vehicle: sodium bicarbonate",42 % of control
same,T/C,"dose: 200.0 mg/kg/injection, schedule: Q07DX002 (ip), vehicle: sodium bicarbonate",37 % of control
same,T/C,"dose: 400.0 mg/kg/injection, schedule: Q07DX002 (ip), vehicle: sodium bicarbonate",44 % of control
CCCCCCCC(=O)[O][Hg][CH2]C1COC([CH2][Hg][O]C(=O)CCCCCCC)CO1 (stereo not given),T/C,"dose: 3.12 mg/kg/injection, schedule: Q07DX002 (ip), vehicle: saline with Tween-80",76 % of control and 97 % of control
same,T/C,[1],101 % of control
same,T/C,[2],108 % of control and 105 % of control
same,T/C,"dose: 100.0 mg/kg/injection, schedule: Q07DX002 (ip), vehicle: saline with Tween-80",81 % of control
c1cc[c]([Sn]([NH]c2ncnc3[nH]cnc23)([NH]c2ncnc3[nH]cnc23)[c]2ccccc2)cc1,T/C,"dose: 25.0 mg/kg/injection, schedule: Q07DX002 (ip), vehicle: saline",51 % of control
same,T/C,[3],84 % of control
same,T/C,[4],46 % of control
same,T/C,[5],81 % of control
same,T/C,"dose: 400.0 mg/kg/injection, schedule: Q07DX002 (ip), vehicle: saline",66 % of control
N=[N+]=CC(=O)OCC(N)C(=O)O (stereo not given),T/C,"dose: 3.12 mg/kg/injection, schedule: Q07DX002 (ip), vehicle: water",97 % of control
same,T/C,"dose: 3.12 mg/kg/injection, schedule: Q07DX003 (ip), vehicle: clinical formulation",159 % of control
same,T/C,"dose: 6.25 mg/kg/injection, schedule: Q07DX002 (ip), vehicle: water",117 % of control
same,T/C,"dose: 6.25 mg/kg/injection, schedule: Q07DX003 (ip), vehicle: clinical formulation",110 % of control
same,T/C,"dose: 12.5 mg/kg/injection, schedule: Q07DX003 (ip), vehicle: clinical formulation",88 % of control
same,T/C,"dose: 25.0 mg/kg/injection, schedule: Q07DX002 (ip), vehicle: water",99 % of control
same,T/C,"dose: 25.0 mg/kg/injection, schedule: Q07DX003 (ip), vehicle: clinical formulation",100 % of control
same,T/C,"dose: 50.0 mg/kg/injection, schedule: Q07DX002 (ip), vehicle: water",91 % of control
Cc1c(N)nc(C(CC(N)=O)NCC(N)C(N)=O)nc1C(=O)NC(C(=O)NC(C)C(O)CC(=O)NC(C(=O)NC(OC1OC(C)C(N)C(O)C1O)C(O)c1nc(-c2nc(C(=O)NCCCC(N)CC(=O)NCCCNCCCCN)cs2)cs1)C(C)O)C(OC1OC(CO)C(O)C(O)C1OC1OC(CO)C(O)C(OC(N)=O)C1O)c1cnc[nH]1 (stereo not given),T/C,"dose: 2.0 mg/kg/injection, schedule: Q07DX002 (ip), vehicle: saline",56 % of control
same,T/C,"dose: 4.0 mg/kg/injection, schedule: Q07DX002 (ip), vehicle: saline",43 % of control
same,T/C,"dose: 8.0 mg/kg/injection, schedule: Q07DX002 (ip), vehicle: saline",25 % of control
same,T/C,"dose: 16.0 mg/kg/injection, schedule: Q07DX002 (ip), vehicle: saline",19 % of control
same,T/C,"dose: 32.0 mg/kg/injection, schedule: Q07DX002 (ip), vehicle: saline",6 % of control
C[C@]12CCC(=O)C(O)=C1CC[C@@H]1[C@@H]2CC[C@]2(C)C(=O)CC[C@@H]12,T/C,"dose: 25.0 mg/kg/injection, schedule: Q07DX002 (ip), vehicle: Klucel (hydroxypropylcellulose) (HPC)",82 % of control
same,T/C,"dose: 50.0 mg/kg/injection, schedule: Q07DX002 (ip), vehicle: Klucel (hydroxypropylcellulose) (HPC)",110 % of control and 101 % of control
same,T/C,"dose: 100.0 mg/kg/injection, schedule: Q07DX002 (ip), vehicle: Klucel (hydroxypropylcellulose) (HPC)",176 % of control and 186 % of control
same,T/C,"dose: 200.0 mg/kg/injection, schedule: Q07DX002 (ip), vehicle: Klucel (hydroxypropylcellulose) (HPC)",59 % of control and 84 % of control
Nc1nnc[se]1,T/C,[1],79 % of control and 100 % of control
same,T/C,"dose: 12.5 mg/kg/injection, schedule: Q07DX002 (ip), vehicle: saline with Tween-80",66 % of control and 73 % of control
same,T/C,[2],86 % of control and 89 % of control
same,T/C,"dose: 200.0 mg/kg/injection, schedule: Q07DX002 (ip), vehicle: saline with Tween-80",50 % of control
CCCCCCCCCCCCCCC/C([O-])=N/[N+](C)(C)CC(C)O (stereo not given),T/C,"dose: 25.0 mg/kg/injection, schedule: Q01DX001 (ip), vehicle: saline",164 % of control
same,T/C,"dose: 200.0 mg/kg/injection, schedule: Q01DX001 (ip), vehicle: saline",120 % of control
same,T/C,"dose: 400.0 mg/kg/injection, schedule: Q01DX001 (ip), vehicle: saline",85 % of control
CC(=O)O[C@@H]1CO[C@H]2O[C@H]3[C@@H](C(C=O)=C[C@H](O)[C@@H]4C5=C(C(C)C)CC[C@]5(C)CC[C@@]34C)[C@@]2(O)C1=O,T/C,"dose: 1.5 mg/kg/injection, schedule: Q07DX002 (ip), vehicle: Klucel (hydroxypropylcellulose) (HPC)",57 % of control
same,T/C,"dose: 3.0 mg/kg/injection, schedule: Q07DX002 (ip), vehicle: Klucel (hydroxypropylcellulose) (HPC)",80 % of control
same,T/C,"dose: 6.0 mg/kg/injection, schedule: Q07DX002 (ip), vehicle: Klucel (hydroxypropylcellulose) (HPC)",61 % of control
same,T/C,"dose: 12.0 mg/kg/injection, schedule: Q07DX002 (ip), vehicle: Klucel (hydroxypropylcellulose) (HPC)",86 % of control
CN(C)c1ccc2c(NCCCCCCNc3ccnc4cc(N(C)C)ccc34)ccnc2c1,T/C,"dose: 3.12 mg/kg/injection, schedule: Q07DX002 (ip), vehicle: distilled water + Tween-80 + alcohol",81 % of control
same,T/C,"dose: 6.25 mg/kg/injection, schedule: Q07DX002 (ip), vehicle: distilled water + Tween-80 + alcohol",77 % of control
same,T/C,"dose: 12.5 mg/kg/injection, schedule: Q07DX002 (ip), vehicle: distilled water + Tween-80 + alcohol",62 % of control
same,T/C,"dose: 25.0 mg/kg/injection, schedule: Q07DX002 (ip), vehicle: distilled water + Tween-80 + alcohol",62 % of control
same,T/C,"dose: 50.0 mg/kg/injection, schedule: Q07DX002 (ip), vehicle: distilled water + Tween-80 + alcohol",47 % of control
same,T/C,"dose: 100.0 mg/kg/injection, schedule: Q07DX002 (ip), vehicle: distilled water + Tween-80 + alcohol",20 % of control
CNC(=O)OCc1c(COC(=O)NC)c(-c2ccccc2)n(C)c1-c1ccccc1,T/C,"dose: 100.0 mg/kg/injection, schedule: Q07DX002 (ip), vehicle: distilled water + Tween-80",62 % of control
CN(Cc1cnc2nc(N)nc(N)c2n1)c1c(Cl)cc(C(=O)NC(CCC(=O)O)C(=O)O)cc1Cl (stereo not given),T/C,"dose: 3.12 mg/kg/injection, schedule: Q07DX003 (ip), vehicle: Klucel (hydroxypropylcellulose) (HPC)",155 % of control
same,T/C,"dose: 6.25 mg/kg/injection, schedule: Q07DX003 (ip), vehicle: Klucel (hydroxypropylcellulose) (HPC)",117 % of control
same,T/C,"dose: 12.5 mg/kg/injection, schedule: Q07DX003 (ip), vehicle: suspension in saline",87 % of control
same,T/C,"dose: 25.0 mg/kg/injection, schedule: Q07DX003 (ip), vehicle: suspension in saline",124 % of control
same,T/C,"dose: 50.0 mg/kg/injection, schedule: Q07DX003 (ip), vehicle: Klucel (hydroxypropylcellulose) (HPC)",72 % of control
same,T/C,"dose: 50.0 mg/kg/injection, schedule: Q07DX003 (ip), vehicle: suspension in saline",77 % of control
same,T/C,"dose: 100.0 mg/kg/injection, schedule: Q07DX003 (ip), vehicle: Klucel (hydroxypropylcellulose) (HPC)",90 % of control
same,T/C,"dose: 100.0 mg/kg/injection, schedule: Q07DX003 (ip), vehicle: suspension in saline",86 % of control
same,T/C,"dose: 200.0 mg/kg/injection, schedule: Q07DX003 (ip), vehicle: Klucel (hydroxypropylcellulose) (HPC)",102 % of control
same,T/C,"dose: 200.0 mg/kg/injection, schedule: Q07DX003 (ip), vehicle: suspension in saline",81 % of control
same,T/C,"dose: 400.0 mg/kg/injection, schedule: Q07DX003 (ip), vehicle: Klucel (hydroxypropylcellulose) (HPC)",62 % of control
same,T/C,"dose: 400.0 mg/kg/injection, schedule: Q07DX003 (ip), vehicle: suspension in saline",101 % of control
COc1cc2cc3cc4cc(OC)c(OC)cc4c(C)[n+]3cc2cc1OC (tested in a mixture with another compound),T/C,"dose: 12.5 mg/kg/injection, schedule: Q07DX002 (ip), vehicle: saline",74 % of control and 94 % of control
same,T/C,"dose: 12.5 mg/kg/injection, schedule: Q07DX002 (ip), vehicle: suspension in saline",83 % of control
same,T/C,"dose: 25.0 mg/kg/injection, schedule: Q07DX002 (ip), vehicle: suspension in saline",85 % of control
same,T/C,[3],81 % of control and 100 % of control
same,T/C,"dose: 50.0 mg/kg/injection, schedule: Q07DX002 (ip), vehicle: suspension in saline",98 % of control
same,T/C,[4],82 % of control and 88 % of control
same,T/C,"dose: 100.0 mg/kg/injection, schedule: Q07DX002 (ip), vehicle: suspension in saline",116 % of control
same,T/C,[5],74 % of control
same,T/C,"dose: 200.0 mg/kg/injection, schedule: Q07DX002 (ip), vehicle: suspension in saline",50 % of control
same,T/C,"dose: 400.0 mg/kg/injection, schedule: Q07DX002 (ip), vehicle: suspension in saline",89 % of control
